From publication PMC9176662, “Design, synthesis, molecular modeling and biological evaluation of novel Benzoxazole-Benzamide conjugates via a 2-Thioacetamido linker as potential anti-proliferative agents, VEGFR-2 inhibitors and apoptotic inducers” (Journal of Enzyme Inhibition and Medicinal Chemistry, 2022)

Experiments:
MCF-7 cells = assay: Anti-proliferative activity, SRB assay, MCF-7; assay type: cell-based, human; conditions: for IC50: SRB assay, 72 h exposure, mean ± SD of three separate experiments; for MCF-7 SI (selectivity index): ratio of IC50 for normal cells (WI-38) to IC50 for MCF-7
Text: (§1) Several of these derivatives were reported as acting as competitive inhibitors of different tyrosine kinases, with potent cytotoxic activity against various cell lines[58]^,[59]. […] Thus, in this study a novel series of benzoxazole-benzamide conjugates was initially evaluated for their potential anti-cancer activity against colon cancer cell line (HCT-116), breast cancer cell line (MCF-7) and normal human fibroblasts (WI-38), using the Sulforhodamine B colorimetric (SRB) assay.
(§2) 2.1. Anti-proliferative activity against HCT-116 and MCF-7 human cancer cells lines.
(§3) The sulforhodamine B (SRB) assays were performed according to Skehan et al..
(§4) Briefly, exponentially growing cells were trypsinized, counted and seeded at the appropriate densities (5000 cells/100 μL/ well) into 96-well microtiter plates. Cells were incubated in a humidified atmosphere at 37 °C for 24 h. Then, the cells were exposed to the tested compounds at the desired concentrations (0.01, 0.1, 1, 10, and 100 μM) or to 1% dimethyl sulfoxide (DMSO) for 72 h. At the end of the treatment period, the media were removed, and the cells were fixed with 10% trichloroacetic acid at 4 °C for 1 h. Following, the cells were washed with tap water four times and incubated with SRB 0.4% for 30 min. Excess dye was removed by washing repeatedly with 1% (vol/vol) acetic acid. The protein-bound dye was dissolved in 10 mM Tris base solution for (optical density) OD determination at 510 nm using a Spectra Max plus Microplate Reader (Molecular Devices, CA). Cell viability was expressed relative to the untreated control cells. […]

Bcl-xL = assay: Western blot of Bcl-xL expression in HCT-116; assay type: cell-based, human; conditions: HCT-116, Western blot, normalised to β-actin
Text: (§5) It is well known that the anti-apoptotic proteins Bcl-2 and Bcl-xL are mainly overexpressed in various types of cancer, causing survival of cancer cells and/or drug resistance. Therefore, inhibition of these proteins expression leads to cancer cell death and has been used as a strategy for anticancer drug development. In this study, the impact of compounds 1 and 11 on Bcl-2 and Bcl-xL expression in HCT-116 and MCF-7 cancer cell lines was examined using Western blot analysis and all the data were normalised to β-actin (Figure 9).
(§6) 2.5. Impact of compounds 1 and 11 on the level of anti-apoptotic markers (Bcl-2, and Bcl-xL).
(§7) Gel electrophoresis and immuno-blot analysis of proteins (Western Blot) method was used to examine the effect of compounds 1 and 11 on the level of anti-apoptotic markers (Bcl-2, and Bcl-xL). […]
(§8) The cells were then immediately frozen at −20 °C for 1 h for further lysis and collected by cell scraper and sonicated 2×10s. Total protein concentrations were determined colorimetrically using Bradford method before proceeding to the western blotting. […] Briefly, the membranes were incubated for 1 min with a mixture of equal volumes from ECL solution A and ECL solution B. The chemiluminescent signals were captured using a CCD camera-based imager (Chemi Doc imager, Biorad, USA), and the band intensities were then measured with β-actin as an internal reference protein. […]

WI-38 cells = assay: Cytotoxicity against normal fibroblasts, SRB assay, WI-38; assay type: cell-based; conditions: normal human fibroblasts, 72 h, mean ± SD of three separate experiments
Text: as §1, §2, §3, §4

Bcl-2 = assay: Western blot of Bcl-2 expression in MCF-7; assay type: cell-based, human; conditions: MCF-7, Western blot, normalised to β-actin
Text: as §5, §6, §7, §8

HCT-116 cells = assay: Cell cycle analysis by DNA flow cytometry, HCT-116; assay type: cell-based, human; conditions: HCT116, 24 h, compound at its IC50 (supplement: 10 μM); for %Pre-G1: control 4.52; for %G2-M: control 18.93; for %S: control 31.56; for %G0-G1: control 49.51
Protocol: It is clearly known that generally the cytotoxic agents exert their anti-proliferative effect via cell cycle arrest at a specific phase. In the present study, due to the excellent in-vitro anti-proliferative activity of conjugates 1 and 11 against both HCT-116 and MCF-7 cancer cell lines as well as their excellent VEGFR-2 inhibitory activities, cell cycle analysis have been carried out for both compounds. […]
2.3. Cell cycle analysis.
HCT-116 and MCF-7 cells were seeded at concentrations of 1 x 10^5 cells per well in a 6-well plate, and then incubated for 24 h. The cells were treated for 24 h with vehicles (0.1 percent DMSO) or 10 μM of compounds 1 or 11. Using ice-cold, 70 percent ethanol at 4 °C, cells were harvested and fixed for 12 h. Ethanol was removed, and the cells were washed by cold PBS.
Then, the cells were incubated in 0.5 mL of PBS containing 1 mg/mL Ranse for 30 min at 37 °C.
In the dark, the cells were stained with propidium iodide for 30 min. Flow cytometer was then used to detect contents of DNA [63]. […]

Structure (SMILES)	IC50 (MCF-7 cells; Homo sapiens, MCF7, 72 h) [µM]	MCF-7 SI (selectivity index) (MCF-7 cells)	Bcl-xL expression (Bcl-xL)	IC50 (WI-38 cells) [µM]	Bcl-2 expression (Bcl-2)	%Pre-G1 (HCT-116 cells) [%]	%G2-M (HCT-116 cells) [%]	%S (HCT-116 cells) [%]	%G0-G1 (HCT-116 cells) [%]	IC50 (MCF-7 cells) [µM]
O=C(CSc1nc2cc(Cl)ccc2o1)Nc1ccc(C(=O)Nc2ccc(Cl)cc2)cc1 [Compound 11]	16.6 ± 0.013	6.2	inhibited	103.5 ± 0.7	inhibited	17.41	28.44	26.19	45.37	
O=C(CSc1nc2ccccc2o1)Nc1ccc(C(=O)NC2CCCCC2)cc1 [Compound 1]	7.8 ± 0.015	5.8	inhibited	41.9 ± 0.27	inhibited	15.36	24.41	33.25	42.34	7.2 ± 0.01
